Measured values published in patent US20250177357A1, “METHODS FOR TREATING HYPERTROPHIC CARDIOMYOPATHY” (priority 2021, published 2025).

Legend:
[1] = system: patients with symptomatic oHCM; test: Open-label extension trial in oHCM: safety; type: in vivo, human
Excerpt: An open-label extension clinical trial of CK-274 in patients with symptomatic oHCM was initiated.
Patients who completed the study as described in Example 2 and had not developed atrial fibrillation were eligible to enroll in the study. Echo-guided dose titration based on site reads was managed by the investigator and could occur at any time during the trial, as described below.
Each patient received Dose 1 of CK-274 once daily for 2 weeks. […] Patients were up-titrated to Dose 2 if either of the following conditions were met on echocardiography: (1) resting LVOT-G≥30 mmHg and the biplane LVEF≥50%; or (2) resting LVOT-G<30 mmHg, post-Valsalva LVOT-G≥50 mmHg, and the biplane LVEF≥50%. Otherwise, the patient remained on 5 mg of CK-274. If LVEF was […], treatment was discontinued. If LVEF was <40%, treatment is interrupted.
Ambulatory cardiac monitoring is performed on weeks 48, 96, 144, 192 and 240. Cardiac magnetic resonance is monitored at weeks 48, 144 and 240. (See FIG. 26).

healthy adults = test: Phase 1 ECG (QTcF), vital signs and clinical laboratory safety; type: in vivo, human
Procedure: Safety and tolerability. Safety was assessed by the incidence of adverse events (AEs) and by incidence of reduced LVEF. Treatment-emergent AEs (TEAE) were defined as AEs that began or increased after study drug administration. All AEs were coded using the Medical Dictionary for Regulatory Activities version 21.1 and graded using the National Cancer Institute Common Terminology Criteria for AEs (version 4.03) 5-point severity scale. Each AE was judged as either related or unrelated to the study drug by the treating investigator. Clinical laboratory tests were obtained at regular intervals in all cohorts.
For safety monitoring, participants in all cohorts had periodic echocardiograms, which were assessed by a cardiologist. In the SAD and MAD cohorts, echocardiograms were also reviewed by an echocardiography core laboratory for PD assessments, as described below. In addition, participants in all cohorts were monitored with continuous 12-lead ECG recording using Holter monitors. For safety monitoring, a single 12-lead ECG was extracted at screening, pre-dose, and periodically throughout follow-up, and interpreted by the investigator. In the SAD, MAD, and CYP2D6-PM cohorts, cardiodynamic ECGs (triplicate 10-second, 12-lead ECG recordings) were obtained prior to the corresponding PK blood and ECG intervals quantitated by qualified readers.

CCc1nc(-c2ccc3c(c2)CC[C@H]3NC(=O)c2cnn(C)c2)no1 [aficamten, (R)—N-(5-(5-ethyl-1,2,4-oxadiazol-3-yl)-2,3-dihydro-1H-inden-1-yl)-1-methyl-1H-pyrazole-4-carboxamide]
Patients with TEAE Leading to Dose Reduction ([1]; N = 38): 2 (5%)
Patients with TEAE Leading to Drug Interruption ([1]; N = 38): 1 (3%)
Patients with at Least One Related TEAE ([1]; N = 38): 8 (21%)
Patients with at Least One Severe TEAE ([1]; N = 38): 1 (3%)
Patients with at Least One TEAE ([1]; N = 38): 28 (74%)
Patients with at Least One TESAE ([1]; N = 38): 2 (5%)
LVEF of one patient with recurrent alcohol induced atrial fibrillation ([1]; on 15 mg of CK-274): 47%
Events of LVEF <50% attributed to CK-274 ([1]; open-label extension): no events
Serum chemistry, hematology, urinalysis findings (healthy adults; all Phase 1 cohorts): No clinically significant serum chemistry, hematology, or urinalysis findings
Increases in QTcF interval (healthy adults; all cohorts (exception: 1 placebo participant)): ≤ 30 ms
QTcF at baseline or any assessment during the dosing interval (healthy adults; all cohorts, exception of 2 individuals with baseline QTcF ≥440 ms): ≤ 450 ms
QT effect in cardiodynamic assessments (healthy adults; single or multiple doses): no evidence of a positive QT effect
